Laboratory results: paper PMC5201331, “Subchronic Toxicities of HZ1006, a Hydroxamate-Based Histone Deacetylase Inhibitor, in Beagle Dogs and Sprague-Dawley Rats” (International Journal of Environmental Research and Public …, 2016)

Tests used:
Beagle dogs [1] = test: Subchronic toxicity test in Beagle dogs: clinical observation; format: in vivo; conditions: for Frequencies of Diarrhea / Frequencies of Vomiting: beagle, dog, in vivo, po, 42 days
Experimental: (§1) HZ1006 was administered orally to dogs (four/sex/group) at doses of 80, 40, 20, 5 and 0 (control) mg/kg/day, and the dosage volume was 2 mL/kg. The dogs received test doses with the exact amounts on a weekly basis based on current body weights. […] The other dogs in the above groups were dissected on the planned days. For the other groups, half of the dogs were anatomized on d28 and the remaining half on d42.
(§2) Clinical symptoms and mortality were examined at least twice daily during the 42-day period, which included any changes in reaction to treatment, behavior, illness, food consumption, and body weight. Breathing rates, rectal temperature and pupil changes in the Beagle dogs were assessed once every 2 weeks.

Beagle dogs [2] = test: Subchronic toxicity test in Beagle dogs: organ weights; format: in vivo
Experimental: as §1
(§3) After euthanasia, the following organs or tissues were isolated from the dogs and rats: skin, abnormal lesions, spleen, mammary glands, jejunum, pancreas, ileum, duodenum, stomach, colon, cecum, lymph nodes, mesenteric salivary glands, liver, submandibular lymph nodes, thymus, sternum, lungs, heart, esophagus, trachea, tongue, thyroid with parathyroid gland, sciatic nerve, aorta, femurs, skeletal muscle, pituitary gland, brain, kidneys, eyes, urinary bladder, adrenal glands, uterus, ovaries, testes, epididymis and prostate. The weights of the animal organs, such as the liver, spleen, heart, thymus, brain, lungs, adrenal glands, kidneys, uterus, ovaries, epididymis and testes, were tested using an electronic balance. The organs or tissues were fixed using 10% neutral buffered formalin and were then gradient dehydrated, embedded, sectioned, and stained with routine hematoxylin-eosin prior to histopathological observations.

Beagle dogs [3] = test: Subchronic toxicity test in Beagle dogs: histopathology; format: in vivo; conditions: after 28 days
Experimental: as §1, §3

[4] = Toxicokinetics in SD rats; format: in vivo, Sprague-Dawley (SD) rats; conditions: for AUC(0-inf) / Cmax / Tmax / half-life: both sexes, Sprague-Dawley, rat, plasma, po, SD rats; for accumulation coefficient R: rats, after 28 days compared with d1
Experimental: The rats that were judged suitable for the subchronic toxicity study were randomly divided into four groups (10 rats/sex/group). The rats received the test sample by gavage once daily for 28 days. HZ1006 was administered to the rats at doses of 120, 60, 20 and 0 (control) mg/kg, and the dosage volume was 5 mL/kg. Half of the 80 rats (half male and half female) were selected randomly according to body weight and dissected at d28. The remaining rats were dissected at […]. The dogs' blood samples were obtained on the 1st day, the 14th day and the last day (d28) of dosage for plasma HZ1006 content analyses at 0 (1st day only), 1/6, 0.5, 1, 2, 4, 8, 12 and 24 h after dosing, and the blood samples of the rats were acquired on the 1st day and 28th day at the same time as those of the dogs, which were handled and analyzed according to the procedure reported by Zhang et al..

[5] = Subchronic toxicity test in Beagle dogs: overall (NOAEL, urinalysis, ECG); format: in vivo; conditions: both sexes, beagle, dog, in vivo, daily oral administration, 28 days, read-out: NOAEL (No Observed Adverse Effect Level)
Experimental: as §1, §2
(§4) The parameters of the dogs’ ECG included the Heart rate, Time at R, P Duration, P-R interval, T Duration, QRS Durations, Q-T Intervals and ST Segment, which were examined by an ECG6511 ECG instrument (manufactured by Shanghai Kohden Medical Electronic Instrument Corp., Shanghai, China) on d0 (twice), d14, d28 and d42 using the II limb lead method.
(§5) A Micro AUTION MA-4260 Autoanalyzer from Arkray Global Business, Inc. (kyoto, Japan), was used to analyze the animal urine samples. Parameters such as pH, specific gravity, nitrites, leukocytes, glucose, protein, urobilinogen, ketones, occult blood, bilirubin, and hemoglobin were tested.

Beagle dogs [6] = test: as above; format: in vivo
Experimental: as §1, §2, §4, §5

[7] = dog ♂5 (80 mg/kg/day oral), d28
[8] = dog ♂23 (40 mg/kg/day oral), d28
[9] = dogs, 5 mg/kg/day oral, d42 (recovery)
[10] = dogs, 20 mg/kg/day oral, d42 (recovery)
[11] = dogs, 40 mg/kg/day oral, d42 (recovery)
[12] = dogs, 80 mg/kg/day oral, d42 (recovery)
[13] = 20 mg/kg/day, 20 mg/kg/day oral, 28 days
[14] = 20 mg/kg/day, 20 mg/kg/day oral, single
[15] = 60 mg/kg/day, 60 mg/kg/day oral, 28 days
[16] = 60 mg/kg/day, 60 mg/kg/day oral, single
[17] = 120 mg/kg/day, 120 mg/kg/day oral, 28 days
[18] = 120 mg/kg/day, 120 mg/kg/day oral, single

CCCCCCCNc1cc(/C=C/C(=O)NO)ccc1OCCN(CC)CC [HZ1006]
mortality (Beagle dogs [1]; dogs, 5-80 mg/kg/day oral, ♀6 d8 and ♀8 d10 (80 mg/kg), ♀28 d16 (40 mg/kg)): Three dogs died during the study | Frequencies of Diarrhea (Beagle dogs [1]; female, 5 mg/kg/day): 0 days | Frequencies of Vomiting (Beagle dogs [1]; female, 5 mg/kg/day): 0 days | Frequencies of Diarrhea (Beagle dogs [1]; female, 20 mg/kg/day): 0 days | Frequencies of Diarrhea (Beagle dogs [1]; male, 5 mg/kg/day): 0 days | Frequencies of Vomiting (Beagle dogs [1]; male, 5 mg/kg/day): 0 days | Frequencies of Diarrhea (Beagle dogs [1]; male, 20 mg/kg/day): 0 days | Lung absolute weight (Beagle dogs [2]; [7]): 135.9 g | Lung relative weight (Beagle dogs [2]; [7]): 13.39 | Lung absolute weight (Beagle dogs [2]; [8]): 109.8 g | Lung relative weight (Beagle dogs [2]; [8]): 12.34 | Lung absolute weight (Beagle dogs [2]; dogs, 5 mg/kg/day oral, d28): 72.7 ± 8.2 g | Lung relative weight (Beagle dogs [2]; dogs, 5 mg/kg/day oral, d28): 6.90 ± 0.90 | Testis absolute weight (Beagle dogs [2]; dogs, 5 mg/kg/day oral, d28): 13.550 ± 0.494 g | Testis relative weight (Beagle dogs [2]; dogs, 5 mg/kg/day oral, d28): 1.23 ± 0.03 | Testis absolute weight (Beagle dogs [2]; [9]): 14.050 ± 0.212 g | Testis relative weight (Beagle dogs [2]; [9]): 1.45 ± 0.04 | Lung absolute weight (Beagle dogs [2]; dogs, 20 mg/kg/day oral, d28): 71.4 ± 12.6 g | Lung relative weight (Beagle dogs [2]; dogs, 20 mg/kg/day oral, d28): 6.96 ± 1.02 | Testis absolute weight (Beagle dogs [2]; dogs, 20 mg/kg/day oral, d28): 13.953 ± 0.081 g | Testis relative weight (Beagle dogs [2]; dogs, 20 mg/kg/day oral, d28): 1.31 ± 0.26 | Lung absolute weight (Beagle dogs [2]; [10]): 74.0 ± 8.8 g | Lung relative weight (Beagle dogs [2]; [10]): 7.37 ± 0.67 | Testis absolute weight (Beagle dogs [2]; [10]): 12.179 ± 0.518 g | Testis relative weight (Beagle dogs [2]; [10]): 1.21 ± 0.01 | Lung absolute weight (Beagle dogs [2]; dogs, 40 mg/kg/day oral, d28): 92.4 ± 15.4 g | Lung relative weight (Beagle dogs [2]; dogs, 40 mg/kg/day oral, d28): 9.87 ± 2.14 | Testis absolute weight (Beagle dogs [2]; dogs, 40 mg/kg/day oral, d28): 6.631 ± 2.855 g | Testis relative weight (Beagle dogs [2]; dogs, 40 mg/kg/day oral, d28): 0.69 ± 0.24 | Lung absolute weight (Beagle dogs [2]; [11]): 70.4 ± 5.0 g | Lung relative weight (Beagle dogs [2]; [11]): 7.10 ± 1.13 | Testis absolute weight (Beagle dogs [2]; [11]): 9.400 ± 0.063 g | Testis relative weight (Beagle dogs [2]; [11]): 0.78 ± 0.21 | Lung absolute weight (Beagle dogs [2]; dogs, 80 mg/kg/day oral, d28): 95.8 ± 35.3 g | Lung relative weight (Beagle dogs [2]; dogs, 80 mg/kg/day oral, d28): 9.87 ± 3.27 | Testis absolute weight (Beagle dogs [2]; dogs, 80 mg/kg/day oral, d28): 5.660 ± 1.608 g | Testis relative weight (Beagle dogs [2]; dogs, 80 mg/kg/day oral, d28): 0.61 ± 0.23 | Lung absolute weight (Beagle dogs [2]; [12]): 82.9 ± 6.8 g | Lung relative weight (Beagle dogs [2]; [12]): 8.49 ± 0.95 | Testis absolute weight (Beagle dogs [2]; [12]): 6.017 ± 2.937 g | Testis relative weight (Beagle dogs [2]; [12]): 0.63 ± 0.31 | Bone marrow of sternum: decrease in hematopoietic cell numbers (incidence/number examined) (Beagle dogs [3]; 5 mg/kg/day oral): 0/4 | Epididymis: lack of mature sperm and secretions in the epididymal lumen as well as decrease of epididymal lumen size (incidence/number examined) (Beagle dogs [3]; 5 mg/kg/day oral): 0/2 | Lung: large confluent bronchopneumonia (incidence/number examined) (Beagle dogs [3]; 5 mg/kg/day oral): 0/4 | Prostate: reduction in numbers and size, thinner epithelium, narrowing of the glandular cavity of prostatic acini (incidence/number examined) (Beagle dogs [3]; 5 mg/kg/day oral): 0/2 | Testis: Reduction in numbers and types of spermatogenic cells (incidence/number examined) (Beagle dogs [3]; 5 mg/kg/day oral): 0/2 | Epididymis: lack of mature sperm and secretions in the epididymal lumen as well as decrease of epididymal lumen size (incidence/number examined) (Beagle dogs [3]; 20 mg/kg/day oral): 0/2 | Lung: large confluent bronchopneumonia (incidence/number examined) (Beagle dogs [3]; 20 mg/kg/day oral): 0/4 | Prostate: reduction in numbers and size, thinner epithelium, narrowing of the glandular cavity of prostatic acini (incidence/number examined) (Beagle dogs [3]; 20 mg/kg/day oral): 0/2 | Testis: Reduction in numbers and types of spermatogenic cells (incidence/number examined) (Beagle dogs [3]; 20 mg/kg/day oral): 0/2 | Bone marrow of sternum: decrease in hematopoietic cell numbers (incidence/number examined) (Beagle dogs [3]; 40 mg/kg/day oral): 2/4 | Epididymis: lack of mature sperm and secretions in the epididymal lumen as well as decrease of epididymal lumen size (incidence/number examined) (Beagle dogs [3]; 40 mg/kg/day oral): 2/2 | Lung: large confluent bronchopneumonia (incidence/number examined) (Beagle dogs [3]; 40 mg/kg/day oral): 2/4 | Prostate: reduction in numbers and size, thinner epithelium, narrowing of the glandular cavity of prostatic acini (incidence/number examined) (Beagle dogs [3]; 40 mg/kg/day oral): 2/2 | Testis: Reduction in numbers and types of spermatogenic cells (incidence/number examined) (Beagle dogs [3]; 40 mg/kg/day oral): 2/2 | Bone marrow of sternum: decrease in hematopoietic cell numbers (incidence/number examined) (Beagle dogs [3]; 80 mg/kg/day oral): 3/4 | Epididymis: lack of mature sperm and secretions in the epididymal lumen as well as decrease of epididymal lumen size (incidence/number examined) (Beagle dogs [3]; 80 mg/kg/day oral): 2/2 | Lung: large confluent bronchopneumonia (incidence/number examined) (Beagle dogs [3]; 80 mg/kg/day oral): 2/4 | Prostate: reduction in numbers and size, thinner epithelium, narrowing of the glandular cavity of prostatic acini (incidence/number examined) (Beagle dogs [3]; 80 mg/kg/day oral): 2/2 | Testis: Reduction in numbers and types of spermatogenic cells (incidence/number examined) (Beagle dogs [3]; 80 mg/kg/day oral): 2/2 | AUC(0-inf) [4, 13]: 32.7 ± 14.9 ng·h/mL | Cmax [4, 13]: 12.9 ± 9.5 ng/mL | Tmax [4, 13]: 0.34 ± 0.18 h | half-life [4, 13]: 7.32 ± 2.93 h | AUC(0-inf) [4, 14]: 8 ± 9.1 ng·h/mL | Cmax [4, 14]: 7.5 ± 7.2 ng/mL | Tmax [4, 14]: 0.86 ± 1.54 h | half-life [4, 14]: 0.6 ± 0.37 h | AUC(0-inf) [4, 15]: 114 ± 30.9 ng·h/mL | Cmax [4, 15]: 19.7 ± 3.3 ng/mL | Tmax [4, 15]: 0.28 ± 0.17 h | half-life [4, 15]: 7.57 ± 2.31 h | AUC(0-inf) [4, 16]: 39.1 ± 15 ng·h/mL | Cmax [4, 16]: 13.3 ± 5.5 ng/mL | Tmax [4, 16]: 0.5 h | half-life [4, 16]: 6.83 ± 2.69 h | AUC(0-inf) [4, 17]: 447 ± 282 ng·h/mL | Cmax [4, 17]: 57.5 ± 26.1 ng/mL | Tmax [4, 17]: 1.92 ± 3.07 h | half-life [4, 17]: 7.03 ± 1.9 h | AUC(0-inf) [4, 18]: 69.9 ± 22.9 ng·h/mL | Cmax [4, 18]: 20.4 ± 3.8 ng/mL | Tmax [4, 18]: 0.45 ± 0.13 h | half-life [4, 18]: 6.51 ± 1.62 h | accumulation coefficient R ([4]; 20 mg/kg/day oral): 16.8 ± 21.6 | accumulation coefficient R ([4]; 60 mg/kg/day oral): 3.2 ± 1.2 | accumulation coefficient R ([4]; 120 mg/kg/day oral): 6.3 ± 2.8 | NOAEL at 28 days [5]: 5 mg/kg | ECG examination (Beagle dogs [6]; 5-80 mg/kg/day oral): no dose-related changes | urinalysis (Beagle dogs [6]; 5-80 mg/kg/day oral): no dose-related changes | minimum toxic dose (Beagle dogs [6]; daily oral administration, 28 days): 20 mg/kg
